Columns and labels:
[1] = tested on: AngII-induced cardiac hypertrophy in C57BL/6 mice; test: Echocardiography and heart weight/bodyweight in AngII-induced cardiac hypertrophy mice; type: in vivo, mouse; settings: AngII-treated C57BL/6 mice, 20 mg/kg/day for 2 weeks, n = 7
Experimental: Cardiac hypertrophy was induced in 6‐week‐old C57BL/6 mice by a […] subcutaneous injection of AngII (0.5 mg/kg/2 days for 2 weeks) in phosphate buffer (pH 7.2), as described previously 18. Mice in vehicle control group and Ang II group received 1% CMC‐Na solution alone in the same schedule as compound‐treated groups. Animals were killed under sodium pentobarbital anaesthesia. After mice was killed, heart tissues were embedded in 4% paraformaldehyde for pathological analysis and/or snap‐frozen in liquid nitrogen for gene and protein expression analysis. In addition, the blood was collected from the right ventricle using a heparin‐containing syringe with a needle at the time of death.
At the day before the sacrifice, Doppler analysis was performed to ensure that pathologic cardiac hypertrophy was induced. The internal diameter and wall thickness of left ventricle (LV) were assessed by echocardiography 19. Hearts of the killed mice were dissected and weighted to compare heart weight/bodyweight (mg/kg) ratios in mice. Mice was anaesthetized with isoflurane, echocardiography was performed by SONOS 5500 ultrasound (Philips Electronics, Amsterdam, the Netherlands) with a 15‐MHz linear array ultrasound transducer. The LV was assessed in both parasternal long‐axis and short‐axis views at a frame rate of 120 Hz. End‐systole or end‐diastole was defined as the phase in which the smallest or largest area of LV respectively. LV posterior wall (LVPW) and LV internal dimension (LVID) were measured from LV M‐model tracing with a sweep speed of 50 mm/sec. at the mid‐papillary muscle level.

[2] = tested on: EGFR signalling in H9c2 cells; settings: 10 μM pre-treatment 2 hrs, EGF 100 ng/ml 15 min, Western blot
Experimental: (§1) Cells or heart tissues (30–50 mg) were lysated. […] Each PVDF membrane was incubated with specific antibodies.

[3] = tested on: EGFR signalling in H9c2 cells; test: Ang II-induced EGFR/AKT/ERK phosphorylation in H9c2 cells (Western blot); type: cell-based, rat; settings: Ang II 1 μM 15 min
Experimental: as §1

[4] = tested on: H9c2 cells; test: EGF-induced hypertrophy of H9c2 cells (Western blot, RT-qPCR, immunofluorescence); type: cell-based, rat; settings: pre-treatment 2 hrs (AG1478 10 μM; 542/543 1-10 μM), EGF 100 ng/ml 6 hrs (mRNA) or 12 hrs (MyHC)
Experimental: as §1

[5] = tested on: heart tissues of Ang II-treated C57BL/6 mice; test: Heart histopathology, Masson fibrosis staining, RT-qPCR and immunohistochemistry in Ang II-treated mice; type: in vivo, mouse; settings: Ang II 2 weeks
Experimental: Cardiac hypertrophy was induced in 6-week-old C57BL/6 mice by a […] subcutaneous injection of AngII (0.5 mg/kg/2 days for 2 weeks) in phosphate buffer (pH 7.2), as described previously 18. Mice in vehicle control group and Ang II group received 1% CMC-Na solution alone in the same schedule as compound-treated groups. Animals were killed under sodium pentobarbital anaesthesia. After mice was killed, heart tissues were embedded in 4% paraformaldehyde for pathological analysis and/or snap-frozen in liquid nitrogen for gene and protein expression analysis. In addition, the blood was collected from the right ventricle using a heparin-containing syringe with a needle at the time of death. […] Hearts were fixed in 4% paraformaldehyde and embedded in paraffin. The paraffin sections (5 μm) were stained with haematoxylin and eosin. To estimate the extent of damage, the specimen was observed under a light microscope (×200 amplification; Nikon, Tokyo, Japan). After deparaffinization and rehydration, 5 μm heart sections were treated with 3% H2O2 for 30 min. and with 1% BSA in PBS for 30 min. Slides were incubated overnight at 4°C with primary antibody (1:50) then incubated with secondary antibody (1:100; Santa Cruz Biotech) for 1 hr and DAB (A: B = 1: 20) for 5 min. at room temperature. At last the cell nuclei were stained with haematoxylin for 5 min., the sections were dehydrated and the images were viewed by a light microscope (×200 amplification; Nikon). Tissues were fixed in paraformaldehyde solution and embedded in paraffin. Paraffin sections (5 μm) of the heart tissues were stained with Masson to evaluate the fibrosis content. The stained sections then were viewed by light microscope (×200 amplification; Nikon).

[6] = tested on: primary neonatal rat cardiomyocytes; test: Ang II-stimulated primary neonatal rat cardiomyocytes (Western blot, RT-qPCR); type: cell-based; settings: 10 μM pre-treatment 2h, Ang II 1 μM 15min
Experimental: Cells were incubated with a DMEM medium that contained 5.5 mmol/L of D-glucose.
Figure S1. Effects of EGFR inhibitos in Ang II-stimulated primary neonatal rat cardiomyocytes. […] The cell lysates were collected and p-EGFR/EGFR (A) and p-AKT/p-ERK/GAPDH (B) were detected by Western Blot analysis. […] The cell lysates were collected and MyHC/GAPDH was detected by Western Blot analysis. […] The mRNA levels of ANP (D), β/α-MyHC (E), and SKA (F) were detected by RT-qPCR assay.

[7] = tested on: c-Src phosphorylation in H9c2 cells; test: Ang II-induced c-Src phosphorylation in H9c2 cells (Western blot); type: cell-based, rat; settings: 10 μM pre-treatment 2 hrs, Ang II 1 μM 15 min
Experimental: as §1

Row | Structure (SMILES) | HR [1] | HW (mg)/BW (g) [1] [mg/g] | LVIDd (diastole left ventricle internal dimension) [1] [mm] | LVIDs (systolic left ventricle internal dimension) [1] [mm] | LVPW (left ventricle posterior wall) [1] [mm] | VS [1] [mm] | activation of EGFR and downstream signalling (EGFR, AKT, ERK phosphorylation) induced by EGF [2] | activation of EGFR and downstream signalling (EGFR, AKT, ERK phosphorylation) induced by Ang II ([3]; AG1478 10 μM, 542/543 1, 2.5, 5 or 10 μM pre-treatment 2 hrs) | EGF-induced overexpression of pro-hypertrophic genes (MyHC, ANP, BNP, β/α-MyHC, SKA) [4] | cardiac EGFR signalling pathway activation (p-EGFR, p-ERK, p-AKT immunohistochemical staining) ([5]; 20 mg/kg) | Ang II-induced increases in heart expression of hypertrophic genes ANP, BNP, β/α-MyHC, SKA (RT-qPCR) ([5]; AG1478 20 mg/kg/day, 542 at both dosages (5 and 20 mg/kg/day)) | Ang II-induced heart structural abnormalities (haematoxylin and eosin staining) ([5]; daily treatment) | Ang II-increased phosphorylation of EGFR in primary cardiomyocytes [6] | Ang II-induced phosphorylation of EGFR ([3]; PP2 10 μM pre-treatment 2 hrs) | Ang II-induced phosphorylation of c-Src [7]
1 | COc1cc2ncnc(Nc3cccc(Cl)c3)c2cc1OC [AG1478] | 345.83 ± 70.87 | 5.68 ± 0.62 | 2.90 ± 0.26 | 1.57 ± 0.21 | 0.88 ± 0.03 | 0.95 ± 0.02 | inhibits | inhibits | significantly inhibited | significantly inhibited | significantly blocked | significantly attenuated | markedly reversed | – | –
2 | CC(C)(C)n1nc(-c2ccc(Cl)cc2)c2c(N)ncnc21 [PP2] | – | – | – | – | – | – | – | – | – | – | – | – | – | almost totally inhibited | almost totally inhibited

Reference: publication PMC4759478, “Novel EGFR inhibitors attenuate cardiac hypertrophy induced by angiotensin II” (Journal of Cellular and Molecular Medicine, 2016)
